Assay results taken from US20250034551A1, “METHODS AND SYSTEMS FOR HIGH-THROUGHPUT BIOCHEMICAL SCREENS” (THINK BIOSCIENCE, INC., priority 2021, published 2025).
“Also recorded” adds a separate entry of the source. Like-named read-outs stand apart in the source and are kept apart here.

Assays:
PTP1B [1] = target: T1, PTP1B (Homo sapiens, UniProt P18031); experiment: PTP1B-catalyzed hydrolysis of p-nitrophenyl phosphate (pNPP), in vitro kinetic assay; format: biochemical; conditions: for inhibition of PTP1B activity on pNPP relative to himachalol: 50 nM PTP1B, 5 mM pNPP, 2% or 10% DMSO; for Ki: PTP1B1-321
T1 sequence (P18031 1-321): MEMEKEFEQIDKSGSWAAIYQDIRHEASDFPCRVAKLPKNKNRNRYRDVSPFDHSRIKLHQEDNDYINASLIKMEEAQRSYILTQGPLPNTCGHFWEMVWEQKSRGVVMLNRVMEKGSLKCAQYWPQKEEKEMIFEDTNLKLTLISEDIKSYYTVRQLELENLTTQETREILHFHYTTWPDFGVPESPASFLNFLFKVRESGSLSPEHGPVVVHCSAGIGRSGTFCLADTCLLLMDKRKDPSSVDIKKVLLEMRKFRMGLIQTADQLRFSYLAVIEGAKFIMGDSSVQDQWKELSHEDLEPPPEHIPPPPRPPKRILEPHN
Experimental: PTP1B was purified as described previously. Briefly, the E. coli BL21 (DE3) cells were transformed with a pET21b vector containing the catalytic domain of PTP1B (residues 1-321) modified with a 6× polyhistidine tag on its C-terminus. The cells were grown in 1-L cultures to an OD600 of 0.3-0.6 (37° C., 225 RPM), induced with 500 μM IPTG, and grown at 22° C. for 20 hours. The cells were lysed with B-PERII, and purified PTP1B by using desalting, nickel affinity, and anion exchange chromatography (HiPrep 26/10, HisTrap HP, and HiPrep Q HP, respectively; GE Healthcare). The final protein was stored (50 μM) in HEPES buffer (50 mM, pH 7.5, 0.5 mM TCEP) in 20% glycerol at −80° C.
(§1) Inhibition was examined by FPP by measuring its influence on PTP1B-catalyzed hydrolysis of p-nitrophenylphosphate (pNPP). Briefly, 100-μL reactions were prepared comprising 50 nM PTP1B, 0.167-20 mM pNPP, and 75-150 μM terpenoids in 50 mM HEPES (pH=7.3) with 50 mM TCEP, 50 μg/mL BSA, and 2-10% DMSO. The reactions were initiated by adding pNPP, and the production of p-nitrophenol (pNP) was monitored by measuring absorbance at 405 nm every 10 s for 5 min (SpectraMax iD3 plate reader). When necessary, the solubility of the terpenoids in individual wells were assessed by plotting the A405 values for each well—including a no-inhibitor well—in a single read.
Kinetic data was analyzed by using a custom Matlab script supplemented with a user-generated standard curve (e.g., a plot of absorbance at 405 nm vs. pNP concentration in μM, FIG. 15). This script removes datapoints outside of (i) the linear range of the standard curve and/or (ii) the initial rate regime, and it excludes datasets that contain fewer than 10 datapoints after these processing steps. The all datasets were fit using linear regression with Matlab's backslash operator. To determine the half maximal inhibitory concentration (IC50) of himachalol, kinetic models were evaluated by fitting them to standard models of inhibition (e.g., […], noncompetitive, […], and mixed inhibition). Briefly, the procedure included: (i) fitting an initial-rate measurements of pNPP hydrolysis with and without inhibitors, (ii) using the Akaike's Information Criterion (AIC) to compare the best-fit single parameter model to each alternative single-parameter model and accepting the “best-fit” model when the difference in AIC (Δi) exceeded 5 for all comparisons (when this criterion was not met, it was deemed that two or more single-parameter models may be indistinguishable), and (iii) using an F-test to compare a mixed inhibition model to the best-fit single-parameter model and accepting the mixed model if p<0.05. […] The MATLAB function “nlparci” was used to determine the confidence intervals of kinetic parameters, and those intervals were propagated to estimate confidence intervals for each IC50.
Inhibition by FPP, a costly reagent, was examined with three modifications of the above assay: (i) pNPP concentration was held constant (5 mM). (ii) The 10% DMSO was replaced with 10% of a mixture of methanol: 10 mM NH4OH (7:3). (FPP was purchased as a 1.1 mg/mL solution in methanol: 10 mM NH4OH (7:3)). (ii) IC50 was estimated by using a linear fit to the initial rate data; 95% confidence intervals were propagated on the regression parameters generated using Matlab's “coefCI function”. This approach, which reflects the limited number of measurements afforded by the FPP stock (measurements which include very high and very low initial rates), may result in a greater error than a more standard approach for estimating IC50 (e.g., 4-parameter logistic curves) but nonetheless provides an order of magnitude estimate of potency.

[2] = solubility of terpenoids in kinetic assay wells (A405); format: physicochemical
Experimental: as §1

SARS-COV-2 3CLpro = SARS-COV-2 3CLpro (Severe acute respiratory syndrome coronavirus 2, UniProt P0DTD1); experiment: 3CLpro-catalyzed proteolysis of fluorogenic peptide substrate TSAVLQ_AFC; format: biochemical; conditions: mean and standard error
[3] = target: kinase substrate domain (MidT) fused to the omega subunit of RNA polymerase (RpoZ), no protease recognition site in the linker (UniProt P0A800)
Chain of kinase substrate domain (MidT) fused to the omega subunit of RNA polymerase (RpoZ), no protease recognition site in the linker (P0A800 whole entry, looked up, the tested form may be a part): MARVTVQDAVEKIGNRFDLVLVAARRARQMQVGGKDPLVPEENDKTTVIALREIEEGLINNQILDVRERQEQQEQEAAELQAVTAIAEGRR

[4] = target: RpoZ-MidT fusion with the DENVpro/WNVpro recognition site in the linker (UniProt P0A800)
Chain of RpoZ-MidT fusion with the DENVpro/WNVpro recognition site in the linker (P0A800 whole entry, looked up, the tested form may be a part): as above

PTP1B [5] = target: T1, PTP1B; experiment: melting temperatures determined with differential scanning fluorimetry; format: binding; conditions: n=3
From the text: (§2) Error bars denote standard error for n=3 technical replicates. […] Error bars denote standard deviation for n=3 technical replicates.

3CLpro = 3CLpro (Severe acute respiratory syndrome coronavirus 2, UniProt P0DTD1); experiment: 3CLpro-mediated hydrolysis of FRET peptide Mca-[…](Dnp)K; format: biochemical, SARS-COV-2
From the text: Förster resonance energy transfer (FRET) peptides provide a facile means of assaying protease inhibitors. These peptides contain a fluorophore and a quencher separated by a protease recognition domain; peptide cleavage separates the fluorophore and quencher and increases fluorescence.
For 3CLpro, a commercially available substrate was used: Mca-[…](Dnp)K (SEQ ID NO: 1), where Mca ((methoxycoumarin-4-yl) acetyl) was the fluorophore and 2,4-dinitrophenyl (Dnp) was the quencher. Using this assay, inhibition by eucalyptol and α-bisabolol (FIGS. 30B-30C, FIG. 56) was examined.

[6] = target: RpoZ-MidT fusion with AAAA_Ubiquitin_AAAA added to the linker (UniProt P0A800)
Chain of RpoZ-MidT fusion with AAAA_Ubiquitin_AAAA added to the linker (P0A800 whole entry, looked up, the tested form may be a part): as above

[7] = target: RpoZ-MidT fusion with the 3CLpro recognition sequence in the linker (number of flanking alanines not stated) (UniProt P0A800)
Chain of RpoZ-MidT fusion with the 3CLpro recognition sequence in the linker (number of flanking alanines not stated) (P0A800 whole entry, looked up, the tested form may be a part): as above

[8] = target: RpoZ-MidT fusion with the HIV-1 protease recognition sequence in the linker (number of flanking alanines not stated) (UniProt P0A800)
Chain of RpoZ-MidT fusion with the HIV-1 protease recognition sequence in the linker (number of flanking alanines not stated) (P0A800 whole entry, looked up, the tested form may be a part): as above

[9] = target: RpoZ-MidT fusion with the PLpro recognition site LRGG in the linker (UniProt P0A800)
Chain of RpoZ-MidT fusion with the PLpro recognition site LRGG in the linker (P0A800 whole entry, looked up, the tested form may be a part): as above

PTP1B [10] = target: T1, PTP1B; experiment: fluorescence-based binding isotherms for BBR; design: binding of BBR to PTP1B in the presence of amorphadiene: dose or concentration left out as unconfirmed; conditions: for ΔFmax of BBR binding isotherm: ±SE
From the text: as §2

[11] = target: RpoZ-MidT fusion with the 3CLpro recognition sequence in the linker (number of flanking alanines not stated), P0A800
Chain of RpoZ-MidT fusion with the 3CLpro recognition sequence in the linker (number of flanking alanines not stated), P0A800 (P0A800 whole entry, looked up, the tested form may be a part): as above

[12] = target: RpoZ-MidT fusion with the HIV-1 protease recognition sequence in the linker (number of flanking alanines not stated), P0A800
Chain of RpoZ-MidT fusion with the HIV-1 protease recognition sequence in the linker (number of flanking alanines not stated), P0A800 (P0A800 whole entry, looked up, the tested form may be a part): as above

C=C1C=CC(C)(C)CCCC(C)=CCC1 [γ-humulene]
inhibition of PTP1B activity on pNPP relative to himachalol (PTP1B [1]): less inhibitory | solubility in kinetic assay ([2]; precluded IC50 estimates): low solubilities

CC(C)=CCC=C(C)C1CC=C(C)CC1 (stereo not drawn) [α-bisabolene]
IC50 (SARS-COV-2 3CLpro): 186 ± 12 µM

3-chymotrypsin-like protease (3CLpro) of SARS-CoV-2
dynamic range (DR, the change in luminescence caused by protease expression) [3]: 10.7±1.2 vs. 6.3±0.9

Non-structural protein 2B-3 protease complex from West Nile Virus (WNV NS2B-NS3)
LuxAB luminescence screen of proteases against recognition sites [4]: WNVpro and DNVpro showed no activity in initial screens

O=C(O)C(=O)Nc1sc2c(c1C(=O)O)CCNC2 [TCS401]
effect on melting temperature (stability) of PTP1B (PTP1B [5]): do not

Cc1cc(-c2c3ccccc3c(Br)c3sc(C)c(C)c23)cc(C)c1O[C@H](Cc1ccccc1)C(=O)O [Ertiprotafib]
effect on melting temperature (stability) of PTP1B (PTP1B [5]): destabilize PTP1B

C=C(C)[C@@H]1CC[C@@H](C)[C@@H]2CCC(C)=C[C@@H]21 [amorphadiene]
selectivity PTP1B versus TCPTP (PTP1B [1]): more potent inhibitor of PTP1B than TCPTP | effect on melting temperature (stability) of PTP1B (PTP1B [5]): do not

CC1=C[C@@H]2C(=C(C)CC[C@H]2C(C)C)CC1 [(+)-8-cadinene]
IC50 (PTP1B [1]; major product of terpene synthase A0A0C9VSL7, error 95 CI, read-out: IC50 (PTP1B), estimated): 165 µM

α-bisabolol
IC50 (3CLpro; FRET / fluorogenic peptide, mixture containing α-bisabolol, read-out: IC50 for 3CLpro): 3.33 µM | IC50 (3CLpro; fit to percent inhibition, FIG. 30C, read-out: half-maximal inhibitory concentration (IC50) for 3CLpro): ~3 µM | IC50 (SARS-COV-2 3CLpro): 30 to 80 µM

HIV-1 protease
LuxAB luminescence response to protease overexpression [6]: HIVpro appeared functional with all sites, which was behavior consistent with its reported promiscuity | LuxAB luminescence response to protease overexpression [7]: HIVpro appeared functional with all sites, which was behavior consistent with its reported promiscuity | LuxAB luminescence response to protease overexpression [8]: HIVpro appeared functional with all sites, which was behavior consistent with its reported promiscuity | LuxAB luminescence response to protease overexpression [9]: HIVpro appeared functional with all sites, which was behavior consistent with its reported promiscuity

CC1=C[C@H]2C(=C(C)CCCC2(C)C)CC1 [β-himachalene]
inhibition of PTP1B activity on pNPP relative to himachalol (PTP1B [1]): less inhibitory | solubility in kinetic assay [2]: low solubilities

CCc1oc2cc(S(=O)(=O)Nc3ccc(S(=O)(=O)Nc4nccs4)cc3)ccc2c1C(=O)c1cc(Br)c(O)c(Br)c1 [BBR, 3-(3,5-dibromo-4-hydroxybenzoyl)-2-ethyl-N-[4-[(2-thiazolylamino)sulfonyl]phenyl]-6-benzofuransulfonamide]
ΔFmax of BBR binding isotherm (PTP1B [10]; BBR alone): 227000±13000 | ΔFmax of BBR binding isotherm (PTP1B [10]; BBR with AD): 195000±12000 | ΔFmax of BBR binding isotherm (PTP1B [10]; BBR with TCS401): 94000±2000 | binding of BBR to PTP1B in the presence of amorphadiene (PTP1B [10]; presence of amorphadiene): not significantly disrupted | effect on melting temperature (stability) of PTP1B (PTP1B [5]): destabilize PTP1B

Non-structural protein 2B-3 protease complex from Dengue virus 2 (DENV2 NS2B-NS3)
LuxAB luminescence screen of proteases against recognition sites [4]: WNVpro and DNVpro showed no activity in initial screens

CC(C)=CCC/C(C)=C/CC/C(C)=C/CO[P@@](=O)(O)OP(=O)(O)O (stereo in doubt) [FPP, farnesyl pyrophosphate]
IC50 (PTP1B [1]; [PTP1B]=50 nM, [pNPP]=5 mM, linear fit, rough estimate, read-out: IC50 for PTP1B): ~200 µM

CC1=C[C@H]2[C@@H](CC1)[C@](C)(O)CCCC2(C)C [himachalol]
Ki (PTP1B [1]; fit of competitive model, read-out: Ki, competitive model): 24.4 µM | Ki (PTP1B [1]; fit of mixed model, read-out: Ki,c, mixed model): 161 µM | Ki (PTP1B [1]; fit of mixed model, read-out: Ki,u, mixed model): 305 µM | Ki (PTP1B [1]; fit of noncompetitive model, marked *, read-out: Ki, noncompetitive model (best fit)): 280 µM | Ki (PTP1B [1]; fit of uncompetitive model, read-out: Ki, uncompetitive model): 253 µM | IC50 (PTP1B [1]; PTP1B-catalyzed hydrolysis of pNPP, estimated from best-fit kinetic model at 20 mM pNPP, read-out: IC50 for PTP1B): 280 ± 59 µM

CC12CCC(CC1)C(C)(C)O2 [eucalyptol]
inhibitory effect on 3CLpro (3CLpro; FRET peptide, FIG. 56): no inhibitory effect; also recorded: not an inhibitor

B1: protein tyrosine phosphatase 1B (PTP1B), catalytic domain 1-321 (protein)
chain: MEMEKEFEQIDKSGSWAAIYQDIRHEASDFPCRVAKLPKNKNRNRYRDVSPFDHSRIKLHQEDNDYINASLIKMEEAQRSYILTQGPLPNTCGHFWEMVWEQKSRGVVMLNRVMEKGSLKCAQYWPQKEEKEMIFEDTNLKLTLISEDIKSYYTVRQLELENLTTQETREILHFHYTTWPDFGVPESPASFLNFLFKVRESGSLSPEHGPVVVHCSAGIGRSGTFCLADTCLLLMDKRKDPSSVDIKKVLLEMRKFRMGLIQTADQLRFSYLAVIEGAKFIMGDSSVQDQWKELSHEDLEPPPEHIPPPPRPPKRILEPHN
dynamic range of LuxAB luminescence between active and inactive PTP1B [11]: retained the desired B2H activity (e.g., PTP1B inactivation increased luminescence) at a 4- to 5-fold dynamic range | dynamic range of LuxAB luminescence between active and inactive PTP1B [12]: retained the desired B2H activity (e.g., PTP1B inactivation increased luminescence) at a 4- to 5-fold dynamic range
